Measurements: US8658131B2, “Compounds comprising 4-benzoylpiperidine as a sigma-1-selective ligand” (Washington University, priority 2010, dated 2014)
Values joined by “and” are separate entries in the source; they are usually repeats but may differ in a detail not shown here. Identical values can stand only once. Counter-ions that a name gives are not always drawn. Like-named read-outs stand apart in the source and are kept apart here.

How the values were obtained:
σ1 receptor = target: T1, σ1 receptor (Cavia porcellus, UniProt Q60492); assay: σ1 receptor binding assay, (+)-[3H]pentazocine, guinea pig brain membranes
T1 construct: using guinea pig brain membrane homogenates; from tissue; host or cells: guinea pig brain membrane homogenates
T1 sequence (Q60492 whole entry): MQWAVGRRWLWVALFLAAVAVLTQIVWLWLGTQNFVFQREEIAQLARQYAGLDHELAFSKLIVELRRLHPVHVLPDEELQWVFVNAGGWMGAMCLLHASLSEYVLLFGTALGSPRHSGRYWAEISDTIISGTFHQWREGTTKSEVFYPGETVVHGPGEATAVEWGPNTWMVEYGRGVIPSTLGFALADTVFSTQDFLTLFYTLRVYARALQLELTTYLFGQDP
Experimental: (§1) The compounds were dissolved in DMF, DMSO, or ethanol, and then diluted in 50 mM Tris-HCl buffer containing 150 mM NaCl and 100 mM EDTA at pH 7.4, prior to performing the σ1 and σ2 receptor binding assays.
The total incubation time was 90 min at room temperature. Nonspecific binding was determined from samples that contained 10 μM of cold haloperidol. After 90 min, the reaction was quenched by adding 150 μL of ice-cold wash buffer (10 mM Tris-HCl, 150 mM NaCl, pH 7.4) using a 96 channel transfer pipet (Fisher Scientific, Pittsburgh, Pa.). The samples were harvested and filtered rapidly through a 96-well fiberglass filter plate (Millipore, Billerica, Mass.) that had been presoaked with 100 μL of 50 mM Tris-HCl buffer at pH 8.0 for 1 h.
(§2) Ki values were calculated using the method of Cheng and Prusoff and are presented as the mean (±1 SEM).

[1] = target: T2, human vesicular acetylcholine transporter (VAChT) (Homo sapiens, UniProt Q16572); assay: VAChT binding assay, (−)-[3H]vesamicol, human VAChT expressed in PC12 cells
T2 construct: expressed in transfected cells; host or cells: PC12 A123.7 cells (crude extract / homogenized, partially clarified cells)
T2 sequence (Q16572 1-532): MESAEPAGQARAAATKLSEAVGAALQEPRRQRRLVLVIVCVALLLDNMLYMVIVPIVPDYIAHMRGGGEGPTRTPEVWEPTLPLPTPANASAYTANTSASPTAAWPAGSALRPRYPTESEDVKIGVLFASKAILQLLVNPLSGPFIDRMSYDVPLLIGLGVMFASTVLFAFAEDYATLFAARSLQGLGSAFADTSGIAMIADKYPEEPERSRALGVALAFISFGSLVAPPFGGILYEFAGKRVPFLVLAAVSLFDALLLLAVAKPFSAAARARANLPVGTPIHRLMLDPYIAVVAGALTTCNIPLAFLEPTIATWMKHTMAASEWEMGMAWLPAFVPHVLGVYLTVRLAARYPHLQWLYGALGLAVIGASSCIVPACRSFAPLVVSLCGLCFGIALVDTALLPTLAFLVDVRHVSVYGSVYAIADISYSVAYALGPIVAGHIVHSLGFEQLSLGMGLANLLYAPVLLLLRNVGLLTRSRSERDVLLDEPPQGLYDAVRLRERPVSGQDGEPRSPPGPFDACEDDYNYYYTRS
Experimental: In vitro binding assays of these novel compounds to VAChT were conducted with human vesicular acetylcholine transporter (VAChT) permanently expressed in PC12^A123.7 cells at about 50 pmol/mg of crude extract. […] Duplicate data were averaged and fitted by regression with a rectangular hyperbola to estimate the Ki value of the novel compound. All compounds were independently assayed at least two times.

σ2 receptor [2] = target: T3, σ2 receptor (Rattus norvegicus, UniProt Q5U3Y7); assay: σ2 receptor binding assay, [3H]DTG, rat liver membrane homogenates; design: conducted using rat liver membrane homogenates; from tissue; host or cells: rat liver membrane homogenates
T3 sequence (Q5U3Y7 1-176): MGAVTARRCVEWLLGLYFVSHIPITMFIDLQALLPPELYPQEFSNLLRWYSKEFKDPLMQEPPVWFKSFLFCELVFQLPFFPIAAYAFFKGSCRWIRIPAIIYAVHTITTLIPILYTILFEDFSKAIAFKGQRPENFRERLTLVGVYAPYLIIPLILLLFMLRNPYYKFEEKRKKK
Experimental: as §1
The incubation time was 2 h at room temperature. Nonspecific binding was determined from samples that contained 10 μM of cold haloperidol. All other procedures were identical to those described for the σ1 receptor binding assay above.
as §2

VAChT = target: T4, VAChT (Tetronarce californica, UniProt P81721); assay: biochemical; type: binding; conditions: for VAChT/σ selectivity: in words; for σ1/VAChT: selectivity index Ki (σ1)/Ki (VAChT); for σ2/VAChT: selectivity index Ki (σ2)/Ki (VAChT)
T4 construct: using highly purified Torpedo synaptic vesicles; from tissue
T4 sequence (P81721 1-515): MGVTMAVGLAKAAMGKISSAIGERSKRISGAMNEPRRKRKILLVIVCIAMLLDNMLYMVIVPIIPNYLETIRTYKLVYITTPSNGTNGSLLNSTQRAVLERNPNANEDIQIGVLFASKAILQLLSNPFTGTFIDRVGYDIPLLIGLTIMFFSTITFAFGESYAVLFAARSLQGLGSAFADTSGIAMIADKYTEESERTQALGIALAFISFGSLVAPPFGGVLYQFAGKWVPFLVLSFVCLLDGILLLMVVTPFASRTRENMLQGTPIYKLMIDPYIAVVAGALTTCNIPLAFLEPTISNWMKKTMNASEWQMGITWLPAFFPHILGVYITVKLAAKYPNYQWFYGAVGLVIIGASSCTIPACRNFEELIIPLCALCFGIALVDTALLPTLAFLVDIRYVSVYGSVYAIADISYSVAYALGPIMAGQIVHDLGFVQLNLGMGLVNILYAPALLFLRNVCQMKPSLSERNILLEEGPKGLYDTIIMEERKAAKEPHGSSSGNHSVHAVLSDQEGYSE

σ2 receptor [3] = target: T3, σ2 receptor; assay: σ2 binding of Table 5 compounds; design: species or system guinea pig; conditions: read-out: σ2 Ki (nM) ± SEM; Table 6
Experimental: Compounds were tested for VAChT binding using highly purified Torpedo synaptic vesicles. The σ1 and σ2 binding affinities were tested in rat brain and in guinea pig membranes, respectively. Structures and Equilibrium binding constants (Ki) are reported in Table 5 and Table 6, respectively. As in previous studies, we define ligand selectivity in terms of a selectivity index which is calculated as Ki (σ1 or σ2)/Ki (VAChT).
Consequently, we also screened the target compounds for sigma binding to identify selective VAChT ligands from this new structural class of agents.

[4] = Table 4, Ki values of VAChT specific compounds, tissue not given, read-out: Sigma-1 σ1
[5] = Table 4, Ki values of VAChT specific compounds, source not given, read-out: VAChT
[6] = Table 4, Ki values of VAChT specific compounds, tissue not given, read-out: Sigma-2 σ1
[7] = expressed human VAChT, mean ± SEM, read-out: VAChT (Ki)

| SMILES | Ki (VAChT) [nM] | Ki (σ2 receptor [3]) [nM] | VAChT/σ selectivity (VAChT) | σ1/VAChT (VAChT) | σ2/VAChT (VAChT) | further results |
| --- | --- | --- | --- | --- | --- | --- |
| O=C(c1ccc(F)cc1)C1CCN(C2CCN(Cc3ccc(F)cc3)CC2O)CC1 (racemic) [Compound 14a, (1′-(4-Fluorobenzyl)-3′-hydroxy-[1,4′-bipiperidin]-4-yl)(4-fluorophenyl)methanone] | – | – | – | – | – | Ki (σ1 receptor; membrane preparations of guinea pig brain, mean ± SEM, at least three experiments, read-out: σ1 (Ki)): < 5 nM and 0.48 nM |
| Nc1cccc2c1CC(N1CCC(C(=O)c3ccc(F)cc3)CC1)C(O)C2 (single isomer, unassigned) [WW-1-88-1] | – | – | – | – | – | Ki (σ1 receptor; [4]): 3690 ± 537 nM; Ki [1, 5]: 366 ± 36 nM; Ki (σ2 receptor [2]; [6]): 14700 ± 1940 nM |
| Nc1cccc2c1CC(N1CCC(C(=O)c3ccc(F)cc3)CC1)C(O)C2 (single isomer, unassigned) [WW-1-88-2] | – | – | – | – | – | Ki (σ1 receptor; [4]): 3550 ± 438 nM; Ki [1, 5]: 20.9 ± 4.98 nM; Ki (σ2 receptor [2]; [6]): 6890 ± 546 nM |
| O=C(c1ccc(F)cc1)C1CCN(C2CCN(C(=O)c3ccc(F)cc3)CC2O)CC1 (centres unmarked) [Compound 15a, (3′-Hydroxy-[1,4′-bipiperidine]-1′,4-diyl)bis(4-fluorophenyl)methanone] | – | – | – | – | – | Ki [1, 7]: 3600 ± 499 nM |
| COc1ccc(C(=O)C2CCN(C3CN(Cc4ccccc4)CCC3O)CC2)cc1 (centres unmarked) [Compound 16g, (1′-Benzyl-4′-hydroxy-[1,3′-bipiperidin]-4-yl)(4-methoxyphenyl)methanone] | – | – | – | – | – | Ki [1, 7]: 35.5 ± 11.1 nM; Ki (σ2 receptor [2]; homogenates of rat liver, mean ± SEM, read-out: σ2 (Ki)): 8540 ± 1900 nM |
| COc1ccc(C(=O)C2CCN(C3Cc4ccccc4CC3O)CC2)cc1 (centres unmarked) [DZT-I-107] | – | – | – | – | – | Ki (σ1 receptor; [4]): 132 ± 10.1 nM; Ki [1, 5]: 4.64 ± 0.47 nM; Ki (σ2 receptor [2]; [6]): 1953 ± 13.1 nM |
| Cc1ccc(C(=O)C2CCN(C3Cc4c(N)cccc4CC3O)CC2)cn1 (centres unmarked) [OS-5-70, (1-(8-amino-3-hydroxy-1,2,3,4-tetrahydronaphthalen-2-yl)piperidin-4-yl)(6-methylpyridin-3-yl)methanone oxalate] | 48 ± 11.4 | 27500 ± 6940 | – | – | – | Ki [1, 5]: 48 ± 11.4 nM; Ki (σ2 receptor [2]; [6]): 27500 ± 6940 nM |
| COc1cccnc1C(=O)C1CCN(C2Cc3ccccc3CC2O)CC1 (centres unmarked) [TZ-4-1-92, (1-(3-Hydroxy-1,2,3,4-tetrahydronaphthalen-2-yl)piperidin-4-yl)(3-methoxypyridin-2-yl)methanone oxalate] | 121 ± 29.2 | 1560 ± 63 | poor selectivity | 173.3 | 12.9 | – |
| O=C(c1cncc(F)c1)C1CCN(C2Cc3ccccc3CC2O)CC1 (centres unmarked) [TZ-4-1-96, (5-Fluoropyridin-3-yl)(1-(3-hydroxy-1,2,3,4-tetrahydronaphthalen-2-yl)piperidin-4-yl)methanone oxalate] | 10.1 ± 1.54 | 1690 ± 56 | moderate or high | 70.2 | 167.3 | – |
| Cn1ccc(C(=O)C2CCN(C3Cc4ccccc4CC3O)CC2)c1 (centres unmarked) [TZ-4-1-114, (1-(3-Hydroxy-1,2,3,4-tetrahydronaphthalen-2-yl)piperidin-4-yl)(1-methyl-1H-pyrrol-3-yl)methanone oxalate] | – | 7710 ± 1060 | – | – | – | – |
| O=C(c1cccnc1F)C1CCN(C2Cc3ccccc3CC2O)CC1 (centres unmarked) [TZ-4-1-122, (2-fluoropyridin-3-yl)(1-(3-hydroxy-1,2,3,4-tetrahydronaphthalen-2-yl)piperidin-4-yl)methanone] | 12.7 ± 2.41 | 3530 ± 331 | moderate or high | 102.2 | 277.9 | – |
| Cn1c(C(=O)C2CCN(C3Cc4ccccc4CC3O)CC2)cccc1=O (centres unmarked) [TZ-4-1-148, 6-(1-(3-Hydroxy-1,2,3,4-tetrahydronaphthalen-2-yl)piperidine-4-carbonyl)-1-methylpyridin-2(1H)-one] | 182 ± 64.8 | 3340 ± 127 | poor selectivity | 11.8 | 18.3 | – |
| Cn1ccc(C(=O)C2CCN(C3Cc4ccccc4CC3O)CC2)cc1=O (centres unmarked) [TZ-4-1-150, 4-(1-(3-Hydroxy-1,2,3,4-tetrahydronaphthalen-2-yl)piperidine-4-carbonyl)-1-methylpyridin-2(1H)-one oxalate] | 66.2 ± 10.2 | 2120 ± 251 | moderate or high | 50.5 | 32.1 | – |
| O=C(c1ccc(F)nc1)C1CCN(C2Cc3ccccc3CC2O)CC1 (centres unmarked) [TZ-4-1-154, (6-fluoropyridin-3-yl)(1-(3-hydroxy-1,2,3,4-tetrahydronaphthalen-2-yl)piperidin-4-yl)methanone oxalate] | 26.1 ± 2.41 | 1750 ± 93 | moderate or high | 26.2 | 67.0 | – |
| O=C(c1ncccc1OCCF)C1CCN(C2Cc3ccccc3CC2O)CC1 (centres unmarked) [TZ-4-2-12, (3-(2-fluoroethoxy)pyridin-2-yl)(1-(3-hydroxy-1,2,3,4-tetrahydronaphthalen-2-yl)piperidin-4-yl)methanone oxalate] | 76.4 ± 8.33 | 303 ± 130 | poor selectivity | 262.0 | 4.0 | – |
